Test results reported in ChEMBL document CHEMBL1201862, “PubChem BioAssay data set” (2004).
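Where inhibition never reached the appropriate level, the endpoint shown equals the highest concentration tested. Otherwise, values were interpolated linearly from a five-concentration, 48-hour dose response in 96-well plates. At the GI50, growth is halved.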 Activity calls are given as the source filed them. Cut-off read from the data, not from the text of the source: active = GI50 up to about 1.1 µM and inactive = higher.

Legend:
Assay in all cases: inhibition of tumour cell growth, NCI panel, 48 h
[1] = test system: DLD-1
[2] = test system: DMS-114
[3] = test system: DMS-273
[4] = test system: HOP-18
[5] = test system: KM-20L2
[6] = test system: LXFL 529
[7] = test system: RXF 631
[8] = test system: SNB-78
[9] = test system: XF498

Measured: GI50

C=C(C)c1nc(Oc2ccccc2)nc(Oc2ccccc2)n1
inactive: [1] 2.72 µM | [2] 3.01 µM | [3] 6.43 µM | [4] 16.6 µM | [5] 9.98 µM | [6] 2 µM | [7] 3.69 µM | [8] 5.4 µM | [9] 1.73 µM

S=P1(c2ccccc2)Nc2ccc(Cl)cc2N1 (configuration not stated)
inactive: [1] > 100 µM | [2] 26.6 µM | [3] > 100 µM | [4] > 100 µM | [5] > 100 µM | [6] 17.6 µM | [7] 85.7 µM | [8] 23.5 µM | [9] > 100 µM

CCNC(=O)C(O)C1(O)CCC2[C@@H]3CCC4=CC(=O)C=C[C@]4(C)C3[C@@H](O)C[C@@]21C (some centres not stated)
inactive: [1] > 100 µM | [2] 60.7 µM | [3] > 100 µM | [4] 33.3 µM | [5] > 100 µM | [6] > 100 µM | [7] > 100 µM | [8] > 100 µM | [9] > 100 µM
